In patent publication US7767854B2, “N-substituted phenylacetamide derivative and pharmaceutical composition containing the same” (Dainippon Sumitomo Pharma Co., Ltd., priority 2005, dated 2010):
“Also recorded” adds a separate entry of the source.

Tests used:
[1] = Analgesic effect of prior-art compounds (background statement)
[2] = tested on: Slc: Hartley male guinea-pigs; test: Skin sensitization test (Adjuvant and Patch Test, allergenic potency); assay type: in vivo, guinea-pig; conditions: 1% solution patches, FCA pre-treatment, observed 24 and 48 hours after initiation
Procedure: Experiment 3. Skin Sensitization Test (Evaluation of Allergenic Potency)
The purpose of the present experiment is to investigate if each administered compound of the invention may induce allergic contact dermatitis. In detail, the test was carried out using Freund's complete adjuvant (FCA) according to the Adjuvant and Patch Test [Sato, et al., Contact Dermatitis, 7, 225-237 (1981)], which is described in “Description of Guideline on Nonclinical Studies of Drugs (Iyakuhin Hirinshou-shiken Guideline Kaisetsu), Chapter 8, P.72-76, Skin sensitization test” [edited by the Ministry of Health and Welfare, Pharmaceutical Affairs Bureau, Yakuji-Nippou-sha (1997)]. Slc: Hartley male guinea-pigs were used for the test. As a test compound, each the compound of the invention and DNCB (1-chloro-2,4-dinitrobenzene) as a positive control drug were dissolved in 70% ethanol/water solution and were administered to the animals. The 70% ethanol/water solution was used as vehicle solvent (reference).
In detail, after FCA emulsion was intradermally administered around the shaved back part of the guinea-pig as a pre-treatment, each patch containing 1% test compound solution or reference (solvent) solution was closedly attached once a day for consecutive 3 days in total (Primary Sensitization). On 7th day after the Primary Sensitization, 10% sodium lauryl sulfate ointment was openly applied at the same part for 24 hours, and then each patch containing 1% test compound solution or reference (solvent) solution was closedly attached again for 48 hours (Second Sensitization). 14 days after the Second Sensitization treatment, each test compound (maximum concentration: 1%) was applied for 24 hours using patch in the same manner (initiation). 24 and 48 hours after the application, the reaction (erythema, edema) on the applied skin part was observed and was scored (0-3) based on the criteria of Magnusson and Kligman [J. Invest. Dermatol., 52, 268-276 (1969)], and then the degree of skin sensitization induced by each of compound was evaluated.

male Std: Wistar rats = test: Pain test by plantar thermal stimuli (plantar test); assay type: in vivo; conditions: Rattus norvegicus, 4 h, 50 μl of 0.03% (W/V) solution i.pl. into right hind-paw; 4 hours after administration; cut-off 25 seconds; read-out: % MPE (percent maximum possible effect, withdrawal latency)
Procedure: Experiment 1: Pain Test by Plantar Thermal Stimuli (Plantar Test)
In the present experiment, the analgesic effect of the compounds of the invention was evaluated by the measurements of withdrawal latency to noxious thermal stimuli, according to the methods of Hargreaves, et al., [Pain, 32, 77-88 (1988)] and Field, et al., [J. Pharmacol. Exp. Ther., 282, 1242-1246 (1997)].
In detail, the experiment was carried out using male Std: Wistar rats (4 rats/group; body weight, 170-220 g) and a plantar test device (Model 7370, Ugo Basile) with infrared beam as a heat source. The rat was put into an experimental cage that is an acrylic box whose bottom is made of glass and was habituated therein. Then, the infrared beam was radiated to the plantar surface of right hind-paw thereof through the floor glass, and the withdrawal latency was measured every 5 minutes, 3 times. The intension of the infrared beam was adjusted so that the pre-drug administration latency was about 10 seconds. The cut-off time was set at 25 seconds in order to prevent a paw burn. The average of the latencies was calculated, and then it was defined as the value of the pre-drug administration latency of the test compound.
Next day, 50 μl of each solution of the test compounds [the compounds of the invention, the compounds of the comparative Examples and capsaicin (Sigma, U.S.A.)] or 50 μl of vehicle solvent (reference) was given to a right hind-paw of the rat by intraplantar injection (i. pl.) using a micro-syringe. The test compound was dissolved in a saline solution containing 10% Tween 80 (Sigma, U.S.A) and 10% ethanol to give a 0.03% (W/V) solution. The saline solution containing 10% Tween 80 and 10% ethanol was used as reference. Four hours after i.pl. administration of each the test compound or the reference to the rats, the experiment mentioned above was carried out, and then the post-drug administration latency was measured. The analgesic effects thereof were calculated with the following formula, which was known as a percent maximum possible effect (% MPE). % MPE=[(the value of post-drug latency−the value of pre-drug latency)/(25*−the value of pre-drug latency)]×100 *: cut-off time

male Std:ddY mice = test: Study for irritancy (eye-wiping test); assay type: in vivo, mouse
Procedure: Experiment 2: Study for Irritancy (Eye-Wiping Test)
In this experiment, we examined the irritancy of the compounds of the invention. The experiment was carried out according to Jancso, et al., [Acta. Physiol. Acad. Sci. Hung., 19, 113-131 (1961)] and Szallasi, et al., [Brit. J. Pharmacol., 119, 283-290 (1996)]. In more detail, the compounds of the invention were dissolved in a physiological saline solution containing 5% Tween 80 and 5% ethanol to prepare each 2 different concentrations (2 concentrations: 10 and 30 μg/ml). One drop of each the solution was dropped into an eye of male Std:ddY mice (5 […]/group; body weight, 20-30 g). The protective wiping behaviors with its front paws were counted for every one minute from 0 to 5 minutes after the administration. Then, the average counts in each one minute were calculated, and the maximum value among the averages was defined as the representative value. Using the saline solution containing […] and 5% ethanol as a vehicle solvent, the test mentioned above was also carried out.

female CBA/JN mice = test: Skin sensitization test (Local Lymph Node Assay with BrdU); assay type: in vivo, mouse; conditions: 1 and 3% solutions in DMF on both auricles, 3 days
Procedure: Experiment 4: Skin Sensitization Test (Local Lymph Node Assay)
The purpose of the present experiment is to investigate if each administered compound of the invention can induce allergic contact dermatitis. In detail, the skin sensitization effect of the compounds of the invention was examined using BrdU (bromodeoxyuridine) by LLNA (Local Lymph Node Assay).
In more detail, the test was carried out according to the method by Suda, A. et al. (Local lymph node assay with non-radioisotope alternative endpoints. J. Toxicol. Sci., 27(3):205-218, 2002). Namely, the compounds of the invention were dissolved in DMF (N,N-dimethylformamide) to prepare 1 and 3% solutions, which were applied to both auricles of female CBA/JN mice aged 9 weeks for consecutive 3 days (1st day to 3rd day)(25 μl/one-side ear, once a day)
As positive control drugs, DNCB (dinitrochlorobenzene, a potently sensitizing drug) and HCA (α-hexylcinnamaldehyde, a weakly sensitizing drug) were used. After the final application was finished (on 3rd day), ALZET Osmotic Pump containing 100 μl of 200 mg/mL BrdU (releasing rate: 0.5 μl/hour) was implanted into the ventral skin under pentobarbital anesthesia, and BrdU was exposed sustainedly. On 9th day from starting day to apply the compounds of the invention, the animals were euthanized by cervical dislocation, and parotid lymph nodes of both their ears were taken out. The nodes were weighed and homogenized in PBS to prepare a single cell suspension which was measured by a blood test device: ADVIA (Bayer) to count the number of the cells. Next, the cells were immunofluorescently stained with FITC-labeled anti-BrdU antibody using a BrdU Flow Kit (BD Biosciences), which were measured and analyzed using a flow cytometer: FACS Calibur (Becton Dickinson) to give BrdU-positive cell percentage. And then, the BrdU-positive cell percentage was multiplied by the number of the node cells to give the number of the BrdU-positive cells. Additionally, on each parameter, the average value for the test compound group was divided by the average value for the reference (solvent) group to give a stimulation Index (SI). We judged that the compound had skin sensitization activity when the SI of BrdU-positive cell number was 2 or more, in principle.

[3] = cited from earlier work

Compound | skin sensitization (erythema, edema score) [2] | change in vivo at 300 µg/mL (male Std: Wistar rats) [%] | skin sensitization (SI of BrdU-positive cell number) (female CBA/JN mice) | other results
COc1cc(CC(=O)NC2CCC(C)CC2)ccc1O (stereo not drawn) |  |  |  | analgesic effect [1]: little analgesic effect
CCCCC1=CCC(NC(=O)Cc2ccc(O)c(OC)c2)CC1 (single isomer, unassigned; (+)) [Example 43, (+)-N-(4-butyl-3-cyclohexenyl)-2-(4-hydroxy-3-methoxyphenyl)acetamide] | no skin sensitization |  |  | 
CCCC=C1CCC(NC(=O)Cc2ccc(O)c(OC)c2)CC1 (single isomer, unassigned; (+)) [Example 45, (+)-N-(4-butylidenecyclohexyl)-2-(4-hydroxy-3-methoxyphenyl)acetamide] | no skin sensitization | 73.9 |  | 
CCCCC1=CCC(NC(=O)Cc2ccc(O)c(OC)c2)CC1 (single isomer, unassigned; (-)) [Example 44, (−)-N-(4-butyl-3-cyclohexenyl)-2-(4-hydroxy-3-methoxyphenyl)acetamide] | no skin sensitization |  |  | 
CCCC=C1CCC(NC(=O)Cc2ccc(O)c(OC)c2)CC1 (single isomer, unassigned; (-)) [Example 46, (−)-N-(4-butylidenecyclohexyl)-2-(4-hydroxy-3-methoxyphenyl)acetamide] | no skin sensitization |  |  | 
COc1cc(CNC(=O)CCCC/C=C/C(C)C)ccc1O [Capsaicin, (E)-8-methyl-N-vanillyl-6-nonenamide] |  | 39.2 |  | Representative value of counts of protective wiping behaviors (max. counts, counts/min) (male Std:ddY mice; 10 μg/ml, one drop into eye, 0 to 5 minutes): 20.0 counts/min; irritancy (protective wiping behaviors, in words) (male Std:ddY mice; capsaicin 10 μg/ml, Example compounds up to 30 μg/ml): frequent protective wiping behaviors
CCCCC1=CCC(NC(=O)Cc2ccc(O)c(OC)c2)CC1 (stereo not drawn) [Example 1, N-(4-butyl-3-cyclohexenyl)-2-(4-hydroxy-3-methoxyphenyl)acetamide] | no skin sensitization | 69.9 | weak skin sensitization | 
CCCCC1CCC(NC(=O)Cc2ccc(O)c(OC)c2)CC1 (stereo not drawn) [Example 2, N-(4-butylcyclohexyl)-2-(4-hydroxy-3-methoxyphenyl)acetamide] | no skin sensitization | 81.4 | weak skin sensitization | 
CC/C=C\[C@H]1CC[C@H](NC(=O)Cc2ccc(O)c(OC)c2)CC1 [Example 16] | no skin sensitization | 94.1 | weak skin sensitization | 
C/C=C\[C@H]1CC[C@H](NC(=O)Cc2ccc(O)c(OC)c2)CC1 [Example 22] | no skin sensitization | 54.7 | weak skin sensitization | 
COc1cc(CC(=O)N[C@H]2CC[C@H](CCCC(C)C)CC2)ccc1O [Example 27] | no skin sensitization | 89.5 | weak skin sensitization | 
COc1cc(CC(=O)NC2CCCCC2)ccc1O [drawing 3] |  |  |  | analgesic effect [1]: little analgesic effect; irritancy ([3]; Arzneim.-Forsch., 25, 1877 (1975)): a little lower irritancy than capsaicin; stimulatory effect and desensitization ([3]; Arzneim.-Forsch., 26, 33 (1976)): strong stimulatory; also recorded: weak desensitization
